Results taken from article PMC3395220 (Journal of Medicinal Chemistry, 2012).
Where two headings read alike, the source gives them in different places.

Legend:
[1] = CD-1, mouse, in vivo
[2] = tested on: SK-MEL28; assay type: cell-based, human; details: 10^Δ2-x, relative to compound 2
[3] = tested on: SF-268; assay type: cell-based, human; details: 10^Δ2-x, relative to compound 2
[4] = tested on: U251; assay type: cell-based, human; details: 10^Δ2-x, relative to compound 2
[5] = tested on: 60 cancer cell lines; test: cells; assay type: cell-based, human; details: for GI50: Homo sapiens
[6] = tested on: HCT-116; assay type: cell-based, human; details: 10^Δ2-x, relative to compound 2
[7] = tested on: RPMI-8226; assay type: cell-based, human; details: 10^Δ2-x, relative to compound 2
[8] = tested on: T-47D; assay type: cell-based, human; details: 10^Δ2-x, relative to compound 2
[9] = tested on: TK-10; assay type: cell-based, human; details: 10^Δ2-x, relative to compound 2
[10] = tested on: SR; assay type: cell-based, human; details: 10^Δ2-x, relative to compound 2
[11] = tested on: A498; assay type: cell-based, human; details: 10^Δ2-x, relative to compound 2
[12] = tested on: panel of 12 tumor cell lines implanted in mice; test: NCI hollow fiber assay; assay type: in vivo
[13] = tested on: SNB-75; assay type: cell-based, human; details: 10^Δ2-x, relative to compound 2
[14] = tested on: BT-549; assay type: cell-based, human; details: 10^Δ2-x, relative to compound 2
[15] = tested on: HOP-62; assay type: cell-based, human; details: 10^Δ2-x, relative to compound 2
[16] = tested on: SN12C; assay type: cell-based, human; details: 10^Δ2-x, relative to compound 2

For `CO[C@@H]([C@@H]1Cc2cc3cc(O[C@H]4C[C@@H](O[C@H]5C[C@@H](O)[C@H](O)[C@@H](C)O5)[C@H](O)[C@@H](C)O4)c(C)c(O)c3c(O)c2C(=O)[C@H]1O[C@H]1C[C@@H](O[C@H]2C[C@@H](O[C@H]3C[C@H](O)[C@H](O)[C@@H](C)O3)[C@H](O)[C@@H](C)O2)[C@H](O)[C@@H](C)O1)[C@@H](O)C(C)=O` [Compound 9, demycarosyl-3D-β-D-digitoxosyl-mithramycin SK], the “fold less toxic than compound 3” value [1] was “about 2 fold”, the activity improvement factor [2] was 1.46 and the activity improvement factor [3] was 1.40. The activity improvement factor [4] was 1.26, the GI50 ([5]; read-out: Mean GI50) was 30 nM and the GI50 ([5]; read-out: Mean log(GI50) (converted)) was 30.2 nM. The “fold more active than 10, in average” value ([5]; NCI-60 GI50) was “about 5 fold”, the activity improvement factor [6] was 1.17 and the activity improvement factor [7] was 0.73. The activity improvement factor [8] was 1.74, the activity improvement factor [9] was 2.45 and the activity improvement factor [10] was 1.11. For the same molecule, the activity improvement factor [11] was 2.24, the “hollow fiber assay total score” value ([12]; 12 tumor cell lines, daily ip for four days) was 66/96 and the “hollow fiber assay intraperitoneal score” value ([12]; intraperitoneal implants) was 36/48. For the same molecule, the “hollow fiber assay subcutaneous score” value ([12]; subcutaneous implants) was 30/48, the activity improvement factor [13] was 0.93 and the activity improvement factor [14] was 0.94. For the same molecule, the activity improvement factor [15] was 2.26 and the activity improvement factor [16] was 1.70.
